Here are results for one compound from US5958966A, “Treatment of aberrant cellular states with biomodulators” (University of New Mexico, priority 1995, dated 1999).

The test system of one experiment is α-mannosidase II. To be noted: cited from earlier work.
Experiment [1] has as its system B16 melanoma cells. Description: effect of swainsonine on cytotoxic T-lymphocytes (51Cr release). The experiment is classed as in vivo, mouse. How it is done:
The cytotoxicity assay used two targets: YAC-1, for natural killer cell targets and B16 melanoma cells, for cytolytic T-cell targets. The YAC-1 cells were labelled in GKN (ucose/KCl/NaCl) with ^51 Cr (NEN-DuPont, 400-1200 Ci/g activity) for 60 min. The B16's were ^51 Cr labelled in complete α-MEM media for 60 min. Both targets were washed twice through whole fetal calf serum to remove damaged and dead cells and then suspended in complete RPMI at a final concentration of 1×10^5 cells/ml. The spleen cells (effector cells) were plated in round bottom 96 well trays starting at 1×10^7 cells/ml (100 μl/well), using a halving dilution that provided splenocyte concentrations of 10^6, 5×10^5, 2.5×10^5, 1.25×10^5, 6.25×10^4 and 3.125×10^4, all done in triplicate. The target cells were added at 1×10^4 cell/100 μl/well; this gave an effector:target cell ratio ranging from 100:1 to 3:1. Controls included spontaneous ^51 Cr release and 100% lysis (10% triton treatment). The trays were centrifuged at 50×g for 5 min. and incubated in a CO2 incubator at 37° C. for 16 hours. The trays were spun again at 50×g for 5 minutes and 100 μl removed from each well for counting. A Packard gamma counter (United Technologies) was used for counting. Each sample was counted for 1 min. giving a 5% counting efficiency. The following equation was used to determine percent lysis.
The effector:target ratios were then plotted against percent lysis and a simple line equation was determined for each treatment group. The slope of this line was then used to determine the total effector kill efficiency.
The ^51 Cr cytotoxicity assay was also run with the B16 melanoma cells as the target and the splenocytes from the same mice as above as the effector cells. The baseline mice (no tumor/no Sw) and the control mice (tumor/no SW) had very similar line shapes and slopes. There were significant differences (p=0.03) between the presence and absence of tumor (see Table in FIG. 68).

The next experiment has as its system solid tumor models. As to conditions: Dennis 1986, 1989, 1990; cited from earlier work.
In experiment [2] the test system is B16 melanoma cells. The experiment is described as follows: effect of swainsonine on B16 melanoma solid tumor growth. Type of experiment: in vivo, mouse. To be noted: for inhibition of B16 growth: 1.0, 0.01 and 0.001 μg Sw (p<0.5). How it is done: The B16 melanoma cells were purchased from American Type Culture Collection (ATCC). They were maintained in complete A-MEM (SIGMA) (with 10% fetal calf serum (FCS) (Sigma), 100 U/ml penicillin (Sigma), 100 μg/ml streptomycin (Sigma) and 2 mM utamine (Sigma)) in Corning 75 cm^2 straight necked flasks (T75) and grown with 5.5% CO2 in air with 95% humidity in a New Brunswick Scientific water jacketed incubator. […] They were harvested using 1× Trypsin-EDTA (Sigma), centrifuged at 100×g with a Beckman TJ6 centrifuge, counted using a hemocytometer and stained with trypan blue to determine viability. The cells used for injection into the mice were washed three times in phosphate buffered saline (PBS), counted and resuspended in PBS at a final concentration of 6×10^6 cells per ml.
The swainsonine, purchased from Boehringer Mannheim, was initially suspended in PBS at 100 μg/ml. Subsequent dilutions utilized in the following experiments were made in PBS.
Fifteen female C57B1/6 mice (6 weeks old, from Harlan Sprague Dawley Laboratories) were treated 3 times per week on a Monday-Wednesday-Friday (MWF) schedule for three weeks prior to the injection of the 6×10^5 B16 melanoma cells. The treatment consisted of 0.1 ml (total volume) intraperitoneal injections of swainsonine in the mornings before 9:00 am. The treatment groups were as follows:
The MWF treatment with the swainsonine continued after the tumor cell injection until the termination of the study. Once the tumor was palpable, electronic calipers were used to measure the length (l), width (w) and depth (d) of the tumor. The volume of the tumor was then determined by V=πr^2 ×d, with the assumption that the tumor is a […], then r=(l+w)/4.
The effect of swainsonine on the growth of B16 melanoma solid tumors in vivo was investigated by pretreating the mice for 3 weeks and then injecting melanoma cells into the right shoulder area. Palpable tumors in the control group (0.0 μg Sw) were present on day 5 post tumor cell injection. These tumors were the size of a grain of rice and could not be accurately measured. FIG. 66 graphically presents tumor growth rate versus time. Tumors whose size could be reliably measured were present on day 7 in the controls (Table I). […] This was a delay of two day in both instances. The 0.1 μg Sw slowed growth of the melanoma tumor. The tumors in the 0.1 μg Sw group were 74% (p=0.03) smaller in size on day 9 compared to the controls and 68% (p=0.003) smaller on day 11.

The next experiment concerns plaque forming cells. To be noted: cited from earlier work.

“Also recorded” adds a separate entry of the source.

Regarding `O[C@H]1[C@H]2[C@H](O)CCCN2C[C@H]1O` [Swainsonine, swainsonine], the “inhibition of α-mannosidase II / anticancer effects” value in the experiment on α-mannosidase II is on record as “known to have anticancer effects possibly mediated through its inhibition of α-mannosidase II”. For the same compound, the “CTL activity in words” value with B16 melanoma cells [1] (0.1 μg Sw for 3 weeks, listed as Sw) was “greater than that of the control and of the 0.01 μg treated mice; also recorded: significant increase in the CTL activity”. Besides, the “increase in line slope above baseline” value with B16 melanoma cells [1] (0.1 μg Sw, day 7 tumor) was 228%. In addition, in the experiment with B16 melanoma cells [1] (0.1 μg Sw, day 7 tumor), the “increase in line slope over control mice with day 7 tumor” value came to 127%. The “growth in other solid tumor models” value in the experiment on solid tumor models is listed as “delay growth in several other solid tumor models”. The “delay of onset of tumor growth” value in the experiment with B16 melanoma cells [2] (0.1 μg Sw) is “two”. Also, the “tumor size reduction versus control” value in the experiment with B16 melanoma cells [2] (0.1 μg Sw, day 9, p=0.03) was 74%; in the experiment on B16 melanoma cells [2] (0.1 μg Sw, day 11, p=0.003) it was 68%. Moreover, in the experiment on B16 melanoma cells [2] (0.1 μg Sw, control day 5), the “first day of palpable tumors” value turned out to be 7 days. In the experiment with B16 melanoma cells [2] (0.1 μg Sw, control day 7), the “first day of measurable tumors” value is 9 days. The effect on growth entry in the experiment with B16 melanoma cells [2] (1.0 μg Sw) is reported as “causes enhanced growth”. For the same compound, the “inhibition of B16 growth” value with B16 melanoma cells [2] is “no effect on delaying growth”; in the experiment with B16 melanoma cells [2] (listed as Sw), “less effective at inhibiting the B16 growth”. Besides, in the experiment with plaque forming cells (SW alone), the “PFC numbers, SW alone” value is on record as “no changes in PFC numbers”. Further, the “antibody formation after immunosuppressive factor” value with plaque forming cells (Sw 3.7-100 mg/kg i.p. 5 days) is recorded as “return to normal levels of antibody production”.
